Values of other authors as cited in paper PMC9569954, “The Antidepressant-like Activity, Effects on Recognition Memory Deficits, Bioavailability, and Safety after Chronic Administration of New Dual-Acting Small Compounds Targeting Neuropsychiatric Symptoms in Dementia” (International Journal of Molecular Sciences, 2022).

Tests used:
5-HT1AR [1] = tested on: 5-HT1AR; design: method as in PMID 35248836; details: cited from earlier work
5-HT1AR [2] = biological target: 5-HT1AR; design: method as in PMID 35248836; details: read-out: Affinity 5-HT1AR Ki; cited from earlier work

Row | SMILES | Functional profile at 5-HT1AR (5-HT1AR [1]) | Ki (5-HT1AR [2]) [nM]
1 | COc1cccc(N2CCN(CC3CCN(c4ncnc5cc(OC)c(OC)cc45)C3)CC2)c1 (stereo not shown) [PQA-AZ4, 6,7-Dimethoxy-4-(3-((4-(3-methoxyphenyl)piperazin-1-yl)methyl)pyrrolidin-1-yl)quinazoline] | partial agonists | 18
2 | COc1cc2ncnc(N3CCC(CN4CCN(c5ccc(Cl)cc5)CC4)C3)c2cc1OC (stereo not shown) [PQA-AZ6, 4-(3-((4-(4-Chlorophenyl)piperazin-1-yl)methyl)pyrrolidin-1-yl)-6,7-dimethoxyquinazoline] | partial agonists | 346
